The experiment concerns microbial cells of Empedobacter brevis strain FERM BP-8113. Description: Production of peptide using microbial cells. In kind it is cell-based. The settings on record: 1 mL cell suspension (100 g/L) + 1 mL buffer with 200 mM carboxy component (hydrochloride) and 400 mM amino acid; borate buffer pH 9.0, 10 mM EDTA; 18° C., 2 hours. As for the experimental part: A 50 mL medium (pH 6.2) containing 5 grams (g) of glucose, 5 g of ammonium sulfate, 1 g of monopotassium phosphate, 3 g of dipotassium phosphate, 0.5 g of magnesium sulfate, 10 g of yeast extract and 10 g of peptone in 1 liter (L) was transferred to a 500 mL Sakaguchi flask and sterilized at 115° C. for 15 minutes. This medium was then inoculated with one loopful cells of Empedobacter brevis strain FERM BP-8113 (Depositary institution: the independent administrative corporation, National Institute of Advanced Industrial Science and Technology, International Patent Organism Depositary, Address of depositary institution: Chuo Dai-6, 1-1 Higashi 1-Chome, Tsukuba-shi, Ibaraki-ken, Japan, International deposit transfer date: Jul. 8, 2002) that had been cultured at 30° C. for 16 hours in the same medium, followed by shake culturing at 30° C. for 16 hours and 120 strokes/min.

This is an account of results in US20040204577A1, “Novel peptide-forming enzyme gene” (Ajinomoto Co., Inc., priority 2003, published 2004).

Structures are written as SMILES. Where a SMILES comes first, the peptide text is derived from it.

`C[C@H](N)C(=O)N[C@@H](CCC(N)=O)C(=O)O` [L-Ala-L-Gln, L-alanyl-L-glutamine] (H-Ala-Gln-OH): the Formed peptide amounted to 68.0 mM.
